{
  "source": "patent US20060025476A1",
  "about": "“Use of methyl pyruvate for the purpose of reducing weight gain in mammals” (priority 2004, published 2006)",
  "origin": "cited, not measured here",
  "key": {"[1]": {"test_system": "LXR"}, "[2]": {"molecular_target": "T1, PPAR-alpha (Rattus norvegicus, UniProt P37230)", "T1 sequence (P37230 1-468)": "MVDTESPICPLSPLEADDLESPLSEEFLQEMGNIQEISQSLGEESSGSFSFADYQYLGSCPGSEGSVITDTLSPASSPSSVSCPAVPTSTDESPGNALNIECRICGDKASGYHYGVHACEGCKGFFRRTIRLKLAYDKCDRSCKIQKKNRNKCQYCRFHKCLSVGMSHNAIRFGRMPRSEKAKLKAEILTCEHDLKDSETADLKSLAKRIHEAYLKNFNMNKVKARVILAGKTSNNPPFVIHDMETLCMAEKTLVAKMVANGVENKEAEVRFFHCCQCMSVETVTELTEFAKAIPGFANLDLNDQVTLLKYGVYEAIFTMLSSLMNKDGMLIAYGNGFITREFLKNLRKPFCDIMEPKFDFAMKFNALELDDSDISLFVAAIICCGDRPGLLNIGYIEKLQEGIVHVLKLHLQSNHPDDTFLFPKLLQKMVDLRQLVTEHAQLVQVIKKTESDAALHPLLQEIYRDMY", "set-up": "from tissue; host or cells: rat gastrocnemius muscle, in vivo", "settings": "gastrocnemius muscle, feeding"}, "[3]": {"molecular_target": "T1, PPAR-alpha", "set-up": "from tissue", "settings": "control and high-fat-fed rats"}, "[4]": {"test_system": "porcine carotid artery strips"}, "[5]": {"test_system": "isolated rat pancreatic islets"}, "[6]": {"test_system": "pancreatic beta-cells"}, "[7]": {"test_system": "isolated beta-cell mitochondria", "settings": "accumulation of ATP in medium, in combination with glutamate"}, "[8]": {"test_system": "Jurkat T-lymphocyte mitochondria"}, "[9]": {"test_system": "pancreatic islets", "settings": "NAD(P)H imaging with LipDH autofluorescence"}, "[10]": {"molecular_target": "T2, K(ATP) channels (Homo sapiens, UniProt Q09428+Q14654)", "T2 construct": "endogenous in cells; host or cells: pancreatic beta-cells", "T2 sequence (Q14654 whole entry)": "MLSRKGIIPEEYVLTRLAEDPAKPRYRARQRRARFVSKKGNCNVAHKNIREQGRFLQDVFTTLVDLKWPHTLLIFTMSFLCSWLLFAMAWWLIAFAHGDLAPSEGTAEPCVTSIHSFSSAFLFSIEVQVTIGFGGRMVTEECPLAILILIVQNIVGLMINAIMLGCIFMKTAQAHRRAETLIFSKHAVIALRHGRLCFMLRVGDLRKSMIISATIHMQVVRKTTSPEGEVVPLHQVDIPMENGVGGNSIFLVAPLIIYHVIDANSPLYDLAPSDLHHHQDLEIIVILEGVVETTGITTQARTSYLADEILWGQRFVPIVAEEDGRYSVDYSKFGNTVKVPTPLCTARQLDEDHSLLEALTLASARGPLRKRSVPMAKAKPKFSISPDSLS", "T2 sequence (Q09428 whole entry)": "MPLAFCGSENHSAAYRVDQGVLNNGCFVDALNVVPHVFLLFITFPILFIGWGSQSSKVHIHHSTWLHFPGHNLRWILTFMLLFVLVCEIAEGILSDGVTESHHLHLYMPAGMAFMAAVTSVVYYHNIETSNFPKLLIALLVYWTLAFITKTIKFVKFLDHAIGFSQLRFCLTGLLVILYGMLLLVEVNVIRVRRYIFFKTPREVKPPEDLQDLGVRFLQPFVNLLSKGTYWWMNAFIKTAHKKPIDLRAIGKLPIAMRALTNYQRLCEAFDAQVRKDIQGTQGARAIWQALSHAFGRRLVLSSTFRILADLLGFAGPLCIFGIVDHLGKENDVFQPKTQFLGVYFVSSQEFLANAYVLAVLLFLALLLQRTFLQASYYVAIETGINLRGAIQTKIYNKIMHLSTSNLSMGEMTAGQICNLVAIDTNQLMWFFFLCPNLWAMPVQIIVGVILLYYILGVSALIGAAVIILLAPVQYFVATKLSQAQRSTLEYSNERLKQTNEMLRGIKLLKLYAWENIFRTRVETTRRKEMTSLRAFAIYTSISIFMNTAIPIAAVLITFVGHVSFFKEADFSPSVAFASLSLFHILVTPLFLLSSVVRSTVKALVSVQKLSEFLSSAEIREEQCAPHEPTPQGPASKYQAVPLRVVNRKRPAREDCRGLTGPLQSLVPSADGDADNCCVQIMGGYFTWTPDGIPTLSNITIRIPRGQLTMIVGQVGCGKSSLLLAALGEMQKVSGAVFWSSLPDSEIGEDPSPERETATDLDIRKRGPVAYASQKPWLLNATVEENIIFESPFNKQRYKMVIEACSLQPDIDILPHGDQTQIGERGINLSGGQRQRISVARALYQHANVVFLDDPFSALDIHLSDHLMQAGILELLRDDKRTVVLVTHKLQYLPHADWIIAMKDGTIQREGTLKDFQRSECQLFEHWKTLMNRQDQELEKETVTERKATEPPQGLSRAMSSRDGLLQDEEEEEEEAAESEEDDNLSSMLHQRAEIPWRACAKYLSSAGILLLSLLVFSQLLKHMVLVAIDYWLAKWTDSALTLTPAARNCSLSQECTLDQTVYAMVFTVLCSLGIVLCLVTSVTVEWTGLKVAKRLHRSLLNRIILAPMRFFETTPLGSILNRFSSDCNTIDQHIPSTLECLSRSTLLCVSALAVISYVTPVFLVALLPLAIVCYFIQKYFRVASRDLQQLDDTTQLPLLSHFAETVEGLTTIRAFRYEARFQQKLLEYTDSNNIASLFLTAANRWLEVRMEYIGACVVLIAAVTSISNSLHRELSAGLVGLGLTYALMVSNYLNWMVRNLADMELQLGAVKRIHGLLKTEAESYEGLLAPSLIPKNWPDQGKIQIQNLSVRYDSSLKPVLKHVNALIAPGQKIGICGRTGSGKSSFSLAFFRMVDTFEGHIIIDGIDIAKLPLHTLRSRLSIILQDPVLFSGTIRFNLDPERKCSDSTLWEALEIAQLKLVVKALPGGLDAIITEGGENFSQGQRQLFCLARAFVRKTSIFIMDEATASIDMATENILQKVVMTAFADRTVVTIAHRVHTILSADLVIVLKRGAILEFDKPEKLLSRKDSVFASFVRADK"}, "[11]": {"test_system": "isolated rat pancreatic islets", "settings": "compared with pyruvate"}, "[12]": {"test_system": "whole islets", "settings": "5 mM"}, "[13]": {"test_system": "pancreatic beta-cells", "remark": "listed apart in the source"}, "[14]": {"test_system": "fetal rat brown adipocyte primary cultures"}, "[15]": {"test_system": "UCP-1 mRNA expression", "settings": "4-5 h, basal or rosiglitazone-treated cells"}, "[16]": {"test_system": "PPARa/g", "settings": "high-fat-fed rats"}, "[17]": {"test_system": "porcine carotid arteries", "settings": "added to amino-oxyacetic acid"}, "[18]": {"test_system": "guinea-pig cerebral cortical synaptosomes"}, "[19]": {"test_system": "Na(+)-K(+)-ATPase", "settings": "10 microM"}},
  "note": "Like-named read-outs stand apart in the source and are kept apart here.",
  "data": [
    {"compound": "O=S(=O)(c1ccccc1)N(CC(F)(F)F)c1ccc(C(O)(C(F)(F)F)C(F)(F)F)cc1", "note": "[T0901317]", "values": [
      {"measurement": "suppressive effects of LXRs on PPARa-induced PPRE-luciferase activity", "setting": "[1]", "value": "dose dependently enhanced"}
    ]},
    {"compound": "Cc1cccc(Nc2cc(Cl)nc(SCC(=O)O)n2)c1C", "note": "[WY14,643]", "values": [
      {"measurement": "pyruvate dehydrogenase kinase activity, PDK4 protein and PDK4 mRNA", "setting": "[2]", "value": "large increases"},
      {"measurement": "hepatic PDK4 protein", "setting": "[3]", "value": "significantly increased"}
    ]},
    {"compound": "CC(O)C(=O)O", "note": "(stereo not drawn) [lactate]", "values": [
      {"measurement": "increase of O2 consumption", "setting": "[4]; 10 mm in PSS", "value": "without effect"}
    ]},
    {"compound": "COC(=O)C(C)=O", "note": "[methyl pyruvate]", "values": [
      {"measurement": "insulin release", "setting": "[5]; D-glucose 16.7 mM and/or methyl ester 20.0 mM", "value": "negative insulinotropic action"},
      {"measurement": "insulin release", "setting": "[5]; D-glucose 2.8 to 8.3 mM, ester not exceeding 10.0 mM", "value": "positive insulinotropic action"},
      {"measurement": "ATP production or ATP/ADP ratio", "setting": "[6]", "value": "did not influence"},
      {"measurement": "NAD(P)H autofluorescence", "setting": "[6]", "value": "slightly decreased"},
      {"measurement": "[Ca2+]i", "setting": "[6]", "value": "sustained rise"},
      {"measurement": "depolarization of beta-cell membrane potential", "setting": "[6]; 5-20 mM", "value": "depolarized the beta-cell in a concentration-dependent manner"},
      {"measurement": "cytosolic free Ca(2+) concentration", "setting": "[6]; after an initial decrease", "value": "increased"},
      {"measurement": "electrical activity", "setting": "[6]; presence of 0.5 mM glucose", "value": "elicited electrical activity"},
      {"measurement": "ATP production with glutamate", "setting": "[7]", "value": "higher than that induced by pyruvate/glutamate"},
      {"measurement": "cation current across the inner membrane of mitochondria", "setting": "[8]", "value": "directly inhibited"},
      {"measurement": "NADH and NADPH response", "setting": "[9]", "value": "robust NADH and NADPH response"},
      {"measurement": "block of KATP", "setting": "[10]", "value": "block"},
      {"measurement": "single-channel currents", "setting": "[10]; inside-out patches", "value": "blocked"},
      {"measurement": "K(ATP) current", "setting": "[10]; standard whole-cell configuration", "value": "inhibited"},
      {"measurement": "efficiency in intramitochondrial metabolism (amino acid conversion, inhibition of glucose utilization, 14CO2 output)", "setting": "[11]", "value": "more efficient than pyruvate"},
      {"measurement": "mitochondrial alkalinization", "setting": "[11]", "value": "more marked mitochondrial alkalinization than pyruvate"},
      {"measurement": "ATP/ADP ratio in whole islets", "setting": "[12]", "value": "no effect"},
      {"measurement": "increase in insulin secretion relative to that induced by glucose", "setting": "[13]", "value": 6, "unit": "fold"},
      {"measurement": "concentration of maximal effect on insulin secretion", "setting": "[13]; absence of glucose", "value": 5, "unit": "mM"}
    ]},
    {"compound": "CC1=C(/C=C/C(C)=C\\C=C\\C(C)=C\\C(=O)O)C(C)(C)CCC1", "note": "[9-cis-retinoic acid]", "values": [
      {"measurement": "p44/p42 and p38 mitogen-activated protein kinase activation", "setting": "[14]", "value": "induce"}
    ]},
    {"compound": "CC(C)CC[C@@H](O)[C@@H](C)[C@H]1CC[C@H]2[C@@H]3CC=C4C[C@@H](O)CC[C@]4(C)[C@H]3CC[C@]12C", "note": "[22 (R)-hydroxycholesterol]", "values": [
      {"measurement": "suppressive effects of LXRs on PPARa-induced PPRE-luciferase activity", "setting": "[1]", "value": "dose dependently enhanced"}
    ]},
    {"compound": "COc1cccc(-c2cc(=O)c3ccccc3o2)c1N", "note": "[PD98059]", "values": [
      {"measurement": "negative effect of TNF-alpha on UCP-1 mRNA expression", "setting": "[15]", "value": "reversed"}
    ]},
    {"compound": "[Cl-].[K+]", "note": "[KCl]", "values": [
      {"measurement": "change in resting tone", "setting": "[4]; 10 mM KCl, glucose-PSS", "value": "-0.8 ± 0.8", "unit": "g"},
      {"measurement": "change in resting tone (increased contraction)", "setting": "[4]; 10 mM KCl, lactate-PSS", "value": "1.5 ± 0.7", "unit": "g"},
      {"measurement": "change in resting tone", "setting": "[4]; 10 mM KCl, pyruvate-PSS", "value": "-2.1 ± 0.8", "unit": "g"}
    ]},
    {"compound": "CCO[C@@H](Cc1ccc(OCCc2ccc(OS(C)(=O)=O)cc2)cc1)C(=O)O", "note": "[tesaglitazar]", "values": [
      {"measurement": "diglyceride and long chain acyl coenzyme A in skeletal muscle", "setting": "[16]", "value": "decreased"},
      {"measurement": "hepatic triglyceride accumulation", "setting": "[16]", "value": "reduced"},
      {"measurement": "glucose infusion rate during hyperinsulinemic-euglycemic clamp", "setting": "[16]; 7 d", "value": "increase"}
    ]},
    {"compound": "CCCCCCCC(=O)O", "note": "[octanoate]", "values": [
      {"measurement": "adverse energetic effects of malate-aspartate shuttle inhibition", "setting": "[17]", "value": "normalized"}
    ]},
    {"compound": "NOCC(=O)O", "note": "[amino-oxyacetic acid]", "values": [
      {"measurement": "negative shift in the cytosolic NAD+/NADH redox potential", "setting": "[18]", "value": 26, "unit": "mV"}
    ]},
    {"compound": "CC1=C(/C=C/C(C)=C/C=C/C(C)=C/C(=O)O)C(C)(C)CCC1", "note": "[all-trans-retinoic acid]", "values": [
      {"measurement": "p44/p42 and p38 mitogen-activated protein kinase activation", "setting": "[14]", "value": "induce"}
    ]},
    {"compound": "C[C@@H]1O[C@@H](O[C@H]2C[C@@H](O)[C@]3(CO)[C@H]4[C@H](O)C[C@]5(C)[C@@H](C6=CC(=O)OC6)CC[C@]5(O)[C@@H]4CC[C@]3(O)C2)[C@H](O)[C@H](O)[C@H]1O", "note": "[ouabain]", "values": [
      {"measurement": "glycolysis and lactate production", "setting": "[19]", "value": "decreased"}
    ]}
  ]
}
